According to patent US20180021277A1, “ANTI-VIRULENCE COMPOSITIONS AND METHODS” (priority 2012, published 2018):
Converted amounts (≈) assume the structure as drawn.

Columns and labels:
[1] = test system: Bacillus anthracis Ames strain; type: cell-based
MRSA USA300 [2] = assay: Murine MRSA bacteremia/sepsis model
MRSA USA300 [3] = type: in vivo, mice; settings: for tissue burden of the wound, average log CFUs ± standard deviation: topical twice a day for seven days, cephalothin 30 mg/kg, F19 20 mg/kg, vancomycin 30 mg/kg; for tissue burden of the wound, average log CFUs ± standard deviation / bacterial burden of the wound vs untreated control: day 8; for improvement of wound healing compared to untreated control: 20 mg/kg on the wound once a day for seven days, wound area day 8; for bacterial burden of the wound vs untreated control: 20 mg/kg once a day for seven days
AgrA-P3 complex = AgrA-P3 complex (Staphylococcus aureus, UniProt P0A0I7); assay: Electrophoretic mobility shift assay, AgrA with P3 promoter DNA; settings: 1 nM P3 DNA, 2 μM AgrA
Sequence of AgrA-P3 complex (P0A0I7 whole entry, one chain of several): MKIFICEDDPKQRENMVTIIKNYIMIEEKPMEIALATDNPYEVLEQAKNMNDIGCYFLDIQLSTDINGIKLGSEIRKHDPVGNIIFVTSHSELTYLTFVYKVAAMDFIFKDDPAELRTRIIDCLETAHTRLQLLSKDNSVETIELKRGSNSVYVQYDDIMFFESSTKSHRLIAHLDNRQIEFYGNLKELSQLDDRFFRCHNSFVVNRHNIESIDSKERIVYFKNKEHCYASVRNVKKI

[4] = Survival of insect larvae given compound in the absence of bacteria; type: in vivo, Galleria Mellonella; settings: after 84 h
MRSA USA300 [5] = assay: microbe, parasite or virus in culture; type: cell-based, Staphylococcus aureus; settings: for MIC: Staphylococcus aureus, read-out: minimum inhibitory concentration (MIC), With F19 (1 μg/mL)
Streptococcus pyogenes = type: cell-based
MRSE Q-15 = type: cell-based, Staphylococcus epidermidis

Compound: C[C@H]1[C@H](NC(=O)/C(=N\OC(C)(C)C(=O)O)c2csc(N)n2)C(=O)N1S(=O)(=O)O [Aztreonam]
- minimum inhibitory concentration (MIC), antibiotic Alone [1]: 256
- minimum inhibitory concentration (MIC), With F19 (10 μg/mL) [1]: <0.1

Compound: CN[C@H](CC(C)C)C(=O)N[C@H]1C(=O)N[C@@H](CC(N)=O)C(=O)N[C@H]2C(=O)N[C@H]3C(=O)N[C@H](C(=O)N[C@H](C(=O)O)c4cc(O)cc(O)c4-c4cc3ccc4O)[C@H](O)c3ccc(c(Cl)c3)Oc3cc2cc(c3O[C@@H]2O[C@H](CO)[C@@H](O)[C@H](O)[C@H]2O[C@H]2C[C@](C)(N)[C@H](O)[C@H](C)O2)Oc2ccc(cc2Cl)[C@H]1O [Vancomycin, vancomycin]
- bacterial load in blood compared to the F19-cephalothin treatment (MRSA USA300 [2]; 30 mg/kg IP twice daily): almost two orders of magnitude lower
- surviving mice (of ten per group) (MRSA USA300 [2]; 30 mg/kg IP twice daily for 7 days, lethal dose 1.6×10^10 CFUs): all survived
- mean bacterial load in blood compared to vehicle-treated animals (MRSA USA300 [2]; 30 mg/kg IP twice daily, day 6): four orders of magnitude lower
- tissue burden of the wound, average log CFUs ± standard deviation (MRSA USA300 [3]): 6.96±0.3 log CFU

Compound: CCCCCCc1cc(C(=O)COc2ccc(F)cc2F)c(O)cc1O [4f-12]
- inhibition of formation of the AgrA-promoter P3 complex (EMSA) (AgrA-P3 complex): inhibit binding of AgrA to its cognate DNA
- inhibition of formation of the AgrA-promoter P3 complex (EMSA) (AgrA-P3 complex; listed as F12): inhibit the formation of the AgrA-promoter P3 complex
- survival of larvae in the absence of bacteria [4]: 80%
- improvement of wound healing compared to untreated control (MRSA USA300 [3]): 79.4%
- bacterial burden of the wound vs untreated control (MRSA USA300 [3]): no significant difference in the bacterial burden

Compound: CCOc1ccc2ccccc2c1C(=O)N[C@@H]1C(=O)N2[C@@H]1SC(C)(C)[C@@H]2C(=O)O [Nafcillin]
- minimum inhibitory concentration (MIC), antibiotic Alone (MRSA USA300 [5]; MRSA USA300): 60 µg/mL (≈ 145 µM)
- MIC (MRSA USA300 [5]): 1 µg/mL (≈ 2.41 µM)
- minimum inhibitory concentration (MIC), antibiotic Alone (Streptococcus pyogenes; alone): 25
- minimum inhibitory concentration (MIC), With F19 (1 μg/mL) (Streptococcus pyogenes; with F19 1 μg/mL): 10

Compound: CC(=O)OCC1=C(C(=O)O)N2C(=O)[C@@H](NC(=O)Cc3cccs3)[C@H]2SC1 [Cephalothin, cephalothin]
- bacterial burden in blood compared to F19-treated animals (MRSA USA300 [2]; 30 mg/kg IP twice daily): approximately the same bacterial burden levels
- minimum inhibitory concentration (MIC), antibiotic Alone (MRSE Q-15): 64
- minimum inhibitory concentration (MIC), With F19 (1 μg/mL) (MRSE Q-15): 3
- minimum inhibitory concentration (MIC), antibiotic Alone (MRSA USA300 [5]; MRSA USA300): 58 µg/mL (≈ 146 µM)
- MIC (MRSA USA300 [5]): 2 µg/mL (≈ 5.04 µM)
- tissue burden of the wound, average log CFUs ± standard deviation (MRSA USA300 [3]): 7.54±0.4 log CFU

Compound: Penicillin
- minimum inhibitory concentration (MIC), antibiotic Alone (MRSE Q-15): 174
- minimum inhibitory concentration (MIC), With F19 (1 μg/mL) (MRSE Q-15): 34
- minimum inhibitory concentration (MIC), antibiotic Alone (MRSA USA300 [5]; MRSA USA300): 135 µg/mL
- minimum inhibitory concentration (MIC), With F19 (1 μg/mL) (MRSA USA300 [5]; MRSA USA300, with F19 1 μg/mL): 18 µg/mL

Compound: CCCCCCc1cc(C(=O)COc2cccc(F)c2)c(O)cc1O [4f-1]
- inhibition of formation of the AgrA-promoter P3 complex (EMSA) (AgrA-P3 complex; listed as F1): inhibit the formation of the AgrA-promoter P3 complex
- improvement of wound healing compared to untreated control (MRSA USA300 [3]): 46.6%
- bacterial burden of the wound vs untreated control (MRSA USA300 [3]): no significant difference in the bacterial burden

Compound: CC(C)(O/N=C(\C(=O)N[C@@H]1C(=O)N2C(C(=O)[O-])=C(C[n+]3ccccc3)CS[C@H]12)c1csc(N)n1)C(=O)O [Cefazidime]
- minimum inhibitory concentration (MIC), antibiotic Alone [1]: 32
- minimum inhibitory concentration (MIC), With F19 (10 μg/mL) [1]: <0.1
